Laboratory results reported in patent US11407767B2, “Heterocyclyl substituted pyrrolopyridines that are inhibitors of the CDK12 kinase” (The University of Nottingham, priority 2017, dated 2022).
Structures can show the parent of a compound that is named as a salt.

Assays:
CDK12/CycK = CDK12/CycK (Homo sapiens, UniProt Q9NYV4); assay: Inhibition of CDK12 (ADP-Glo kinase assay); type: biochemical; conditions: 60 nM CDK12/CycK, 30 minutes pre-incubation, 1 μM ATP, 0.5 μM RBER-IRStide substrate, 1 h at 25° C., read-out: CDK12/cyclin K IC50
CDK12/CycK, sequence (Q9NYV4 whole entry): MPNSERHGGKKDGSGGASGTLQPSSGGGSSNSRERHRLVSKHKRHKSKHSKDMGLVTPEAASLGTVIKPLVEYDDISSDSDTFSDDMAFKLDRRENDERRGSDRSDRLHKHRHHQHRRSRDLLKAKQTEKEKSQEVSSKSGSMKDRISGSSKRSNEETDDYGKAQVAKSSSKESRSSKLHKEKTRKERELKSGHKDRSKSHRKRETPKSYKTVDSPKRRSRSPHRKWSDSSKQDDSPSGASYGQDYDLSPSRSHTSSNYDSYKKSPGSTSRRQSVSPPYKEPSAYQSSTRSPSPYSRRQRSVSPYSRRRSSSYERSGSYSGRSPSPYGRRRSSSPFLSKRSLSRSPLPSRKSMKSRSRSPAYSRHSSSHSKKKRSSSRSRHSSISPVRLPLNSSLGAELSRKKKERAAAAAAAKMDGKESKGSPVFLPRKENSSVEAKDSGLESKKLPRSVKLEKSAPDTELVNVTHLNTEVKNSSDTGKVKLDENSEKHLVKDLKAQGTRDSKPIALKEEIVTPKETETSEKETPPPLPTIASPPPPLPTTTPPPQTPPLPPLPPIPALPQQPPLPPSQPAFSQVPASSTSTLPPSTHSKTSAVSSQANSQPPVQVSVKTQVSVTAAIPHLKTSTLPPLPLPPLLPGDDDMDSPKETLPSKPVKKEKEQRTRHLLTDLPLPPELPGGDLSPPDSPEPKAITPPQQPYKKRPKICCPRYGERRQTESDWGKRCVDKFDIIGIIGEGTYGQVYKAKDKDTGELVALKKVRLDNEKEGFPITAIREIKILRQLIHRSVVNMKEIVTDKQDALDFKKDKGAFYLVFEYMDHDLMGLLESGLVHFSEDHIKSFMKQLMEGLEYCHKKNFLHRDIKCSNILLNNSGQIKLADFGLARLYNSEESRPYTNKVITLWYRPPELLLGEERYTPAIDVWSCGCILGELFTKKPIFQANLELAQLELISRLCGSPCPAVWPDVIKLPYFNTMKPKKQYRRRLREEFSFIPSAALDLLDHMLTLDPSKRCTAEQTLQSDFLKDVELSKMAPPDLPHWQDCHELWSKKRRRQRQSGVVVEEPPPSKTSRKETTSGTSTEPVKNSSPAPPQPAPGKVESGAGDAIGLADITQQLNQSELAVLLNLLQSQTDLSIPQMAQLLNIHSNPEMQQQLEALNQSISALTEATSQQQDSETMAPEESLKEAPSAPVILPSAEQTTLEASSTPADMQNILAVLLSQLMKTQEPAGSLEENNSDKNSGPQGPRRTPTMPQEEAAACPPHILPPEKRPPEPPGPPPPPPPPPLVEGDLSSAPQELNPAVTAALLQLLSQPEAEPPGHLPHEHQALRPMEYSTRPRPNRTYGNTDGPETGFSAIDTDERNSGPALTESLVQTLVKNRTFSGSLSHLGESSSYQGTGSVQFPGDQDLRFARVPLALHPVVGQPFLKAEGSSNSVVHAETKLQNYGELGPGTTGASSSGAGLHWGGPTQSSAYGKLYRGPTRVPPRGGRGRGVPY
CDK12/CycK, sequence (O75909 whole entry partner): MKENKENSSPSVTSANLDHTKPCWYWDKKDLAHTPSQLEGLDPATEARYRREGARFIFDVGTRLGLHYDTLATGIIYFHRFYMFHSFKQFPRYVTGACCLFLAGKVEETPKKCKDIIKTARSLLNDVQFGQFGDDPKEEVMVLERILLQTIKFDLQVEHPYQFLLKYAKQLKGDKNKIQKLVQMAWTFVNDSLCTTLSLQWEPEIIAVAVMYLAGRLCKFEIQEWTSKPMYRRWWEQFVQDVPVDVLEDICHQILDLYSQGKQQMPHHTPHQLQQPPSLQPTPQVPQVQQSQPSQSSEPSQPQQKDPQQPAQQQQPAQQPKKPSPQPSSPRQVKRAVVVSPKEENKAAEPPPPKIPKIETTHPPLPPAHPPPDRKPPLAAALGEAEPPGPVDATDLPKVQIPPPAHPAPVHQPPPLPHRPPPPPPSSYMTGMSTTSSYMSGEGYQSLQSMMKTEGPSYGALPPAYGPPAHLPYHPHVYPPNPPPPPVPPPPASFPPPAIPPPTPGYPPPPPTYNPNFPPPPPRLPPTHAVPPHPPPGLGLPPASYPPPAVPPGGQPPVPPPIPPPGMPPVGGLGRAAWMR
How it was run: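 Compounds pre-incubated 30 min with 60 nM CDK12/CycK in HEPES pH 7.5 buffer with Mg2+/Mn2+, 1% DMSO final. Reaction started with 1 μM ATP and 0.5 μM RBER-IRStide, run 1 h at 25 °C; ADP-Glo luminescence, no-kinase blank subtracted, IC50 from sigmoidal fit of % inhibition.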

DM1 fibroblasts = assay: Nuclear foci assay; type: cell-based; conditions: Fibroblast; DM1 fibroblasts treated for 24 hours, 11 point dilution 20 μM-19 nM, in situ hybridisation with cy3 labelled CAG10 probe
Experimental: DM1 fibroblasts were treated with compounds in an 11 point dilution series from 20 μM-19 nM for 24 hours. Following treatment, fluorescent in situ hybridisation was performed with a cy3 labelled CAG10 probe, to visualize nuclear foci and cells were analysed on a Molecular Devices plate reader with customised MetaExpress software (Ketley, A. et al. (2014). Hum Mol Genet, 23: 1551-1562). Compounds that reduced nuclear foci in a concentration dependent manner, compared to DMSO treated cells were identified.

IC50 (CDK12/CycK)	SMILES	IC50 (DM1 fibroblasts)
0.1 to 1 µM	CN(C)C/C=C/C(=O)N1CC[C@@H](OCC(=O)N2CCC(c3cc4c(-c5cnn6ncccc56)ccnc4[nH]3)C2)C1 (stereo partly drawn) [Example 71, (E)-4-(Dimethylamino)-1-((3R)-3-(2-oxo-2-(3-(4-(pyrazolo[1,5-b]pyridazin-3-yl)-1H-pyrrolo[2,3-b]pyridin-2-yl)pyrrolidin-1-yl)ethoxy)pyrrolidin-1-yl)but-2-en-1-one]	1 to 10 µM
0.1 to 1 µM	CN(C)C/C=C/C(=O)N1CCC[C@@H](C(=O)N2CCC(c3cc4c(-c5cnn6ncccc56)ccnc4[nH]3)C2)C1 (stereo partly drawn) [Example 72, (E)-4-(Dimethylamino)-1-((3R)-3-(3-(4-(pyrazolo[1,5-b]pyridazin-3-yl)-1H-pyrrolo[2,3-b]pyridin-2-yl)pyrrolidine-1-carbonyl)piperidin-1-yl)but-2-en-1-one]	1 to 10 µM
0.1 to 1 µM	CC#CC(=O)N1CCC[C@H]1C(=O)NCCc1cc2c(-c3cnn4ncccc34)ccnc2[nH]1 [Example 83, (S)-1-(But-2-ynoyl)-N-(2-(4-(pyrazolo[1,5-b]pyridazin-3-yl)-1H-pyrrolo[2,3-b]pyridin-2-yl)ethyl)pyrrolidine-2-carboxamide]	1 to 10 µM
0.1 to 1 µM	C=CC(=O)Nc1cccc(C(=O)N2CCN(Cc3cc4c(-c5cnn6ncccc56)ccnc4[nH]3)CC2)c1 [Example 111, N-(3-(4-((4-(Pyrazolo[1,5-b]pyridazin-3-yl)-1H-pyrrolo[2,3-b]pyridin-2-yl)methyl)piperazine-1-carbonyl)phenyl)acrylamide]	1 to 10 µM
< 0.1 µM	C=CC(=O)Nc1ccc(C(=O)N2CCC(c3cc4c(-c5c[nH]c6ccccc56)ccnc4[nH]3)C2)cc1 (stereo not shown) [Example 129, N-(4-(3-(4-(1H-Indol-3-yl)-1H-pyrrolo[2,3-b]pyridin-2-yl)pyrrolidine-1-carbonyl)phenyl)acrylamide]	1 to 10 µM
< 0.1 µM	C=CC(=O)Nc1cccc(C(=O)N2CCC(c3cc4c(-c5cnn6ncccc56)ccnc4[nH]3)C2)c1 (stereo not shown) [Example 141, N-(3-(3-(4-(Pyrazolo[1,5-b]pyridazin-3-yl)-1H-pyrrolo[2,3-b]pyridin-2-yl)pyrrolidine-1-carbonyl)phenyl)acrylamide]	< 1 µM
< 0.1 µM	O=C(CCl)Nc1ccc(C(=O)N2CCC(c3cc4c(-c5cnn6ncccc56)ccnc4[nH]3)C2)cc1 (stereo not shown) [Example 144, 2-Chloro-N-(4-(3-(4-(pyrazolo[1,5-b]pyridazin-3-yl)-1H-pyrrolo[2,3-b]pyridin-2-yl)pyrrolidine-1-carbonyl)phenyl)acetamide]	< 1 µM
< 0.1 µM	O=C(CCl)Nc1cccc(C(=O)N2CCC(c3cc4c(-c5cnn6ncccc56)ccnc4[nH]3)C2)c1 (stereo not shown) [Example 145, 2-Chloro-N-(3-(3-(4-(pyrazolo[1,5-b]pyridazin-3-yl)-1H-pyrrolo[2,3-b]pyridin-2-yl)pyrrolidine-1-carbonyl)phenyl)acetamide]	< 1 µM
< 0.1 µM	C=CC(=O)Nc1cccc(C(=O)N2CC[C@H](c3cc4c(-c5cnn6ncccc56)ccnc4[nH]3)C2)c1 [Example 151, (S)—N-(3-(3-(4-(Pyrazolo[1,5-b]pyridazin-3-yl)-1H-pyrrolo[2,3-b]pyridin-2-yl)pyrrolidine-1-carbonyl)phenyl)acrylamide]	< 1 µM
< 0.1 µM	O=C([C@H]1CCCN1C(=O)CCl)N1CCC(c2cc3c(-c4cnn5ncccc45)ccnc3[nH]2)C1 (stereo partly drawn) [Example 156, 2-Chloro-1-((2R)-2-(3-(4-(pyrazolo[1,5-b]pyridazin-3-yl)-1H-pyrrolo[2,3-b]pyridin-2-yl)pyrrolidine-1-carbonyl)pyrrolidin-1-yl)ethan-1-one]	< 1 µM
< 0.1 µM	O=C(CCl)Nc1cccc(C(=O)N2CC[C@@H](c3cc4c(-c5cnn6ncccc56)ccnc4[nH]3)C2)c1 [Example 159, (R)-2-Chloro-N-(3-(3-(4-(pyrazolo[1,5-b]pyridazin-3-yl)-1H-pyrrolo[2,3-b]pyridin-2-yl)pyrrolidine-1-carbonyl)phenyl)acetamide]	< 1 µM

Second part, the compound before the results:

SMILES	IC50 (CDK12/CycK)	IC50 (DM1 fibroblasts)
CCC(=O)N1CCC[C@H]1C(=O)NCCc1cc2c(-c3cnn4ncccc34)ccnc2[nH]1 [Example 73, (S)-1-Propionyl-N-(2-(4-(pyrazolo[1,5-b]pyridazin-3-yl)-1H-pyrrolo[2,3-b]pyridin-2-yl)ethyl)pyrrolidine-2-carboxamide]	1 to 30 µM	10 to 100 µM
C=CC(=O)Nc1ccc(C(=O)NCCc2cc3c(-c4cnn5ncccc45)ccnc3[nH]2)cc1 [Example 76, 4-Acrylamido-N-(2-(4-(pyrazolo[1,5-b]pyridazin-3-yl)-1H-pyrrolo[2,3-b]pyridin-2-yl)ethyl)benzamide]	< 0.1 µM	< 1 µM
CN(C)C/C=C/C(=O)N1CCC[C@H]1C(=O)NCCc1cc2c(-c3cnn4ncccc34)ccnc2[nH]1 [Example 84, (S,E)-1-(4-(Dimethylamino)but-2-enoyl)-N-(2-(4-(pyrazolo[1,5-b]pyridazin-3-yl)-1H-pyrrolo[2,3-b]pyridin-2-yl)ethyl)pyrrolidine-2-carboxamide]	1 to 30 µM	10 to 100 µM
C=CC(=O)N1CCCC[C@H]1C(=O)NCCc1cc2c(-c3cnn4ncccc34)ccnc2[nH]1 [Example 92, (S)-1-Acryloyl-N-(2-(4-(pyrazolo[1,5-b]pyridazin-3-yl)-1H-pyrrolo[2,3-b]pyridin-2-yl)ethyl)piperidine-2-carboxamide]	< 0.1 µM	1 to 10 µM
C=CC(=O)N1CCC[C@H]1C(=O)NCCc1cc2c(-c3cnn(C)c3)ccnc2[nH]1 [Example 94, (S)-1-Acryloyl-N-(2-(4-(1-methyl-1H-pyrazol-4-yl)-1H-pyrrolo[2,3-b]pyridin-2-yl)ethyl)pyrrolidine-2-carboxamide]	0.1 to 1 µM	10 to 100 µM
C=CC(=O)Nc1ccc(C(=O)N2CCN(Cc3cc4c(-c5cnn6ncccc56)ccnc4[nH]3)CC2)cc1 [Example 112, N-(4-(4-((4-(Pyrazolo[1,5-b]pyridazin-3-yl)-1H-pyrrolo[2,3-b]pyridin-2-yl)methyl)piperazine-1-carbonyl)phenyl)acrylamide]	0.1 to 1 µM	1 to 10 µM
C=CC(=O)N1CCC[C@H]1C(=O)N1CCN(Cc2cc3c(-c4cnn5ncccc45)ccnc3[nH]2)CC1 [Example 113, (S)-1-(2-(4-((4-(Pyrazolo[1,5-b]pyridazin-3-yl)-1H-pyrrolo[2,3-b]pyridin-2-yl)methyl)piperazine-1-carbonyl)pyrrolidin-1-yl)prop-2-en-1-one]	1 to 30 µM	10 to 100 µM
C=CC(=O)Nc1ccc(C(=O)N2CCC(c3cc4c(-c5cnn6ncccc56)ccnc4[nH]3)C2)cc1 (stereo not shown) [Example 126, N-(4-(3-(4-(Pyrazolo[1,5-b]pyridazin-3-yl)-1H-pyrrolo[2,3-b]pyridin-2-yl)pyrrolidine-1-carbonyl)phenyl)acrylamide]	< 0.1 µM	< 1 µM
CN(C)C/C=C/C(=O)Nc1ccc(C(=O)N2CCC(c3cc4c(-c5cnn6ncccc56)ccnc4[nH]3)C2)cc1 (stereo not shown) [Example 127, (E)-4-(Dimethylamino)-N-(4-(3-(4-(pyrazolo[1,5-b]pyridazin-3-yl)-1H-pyrrolo[2,3-b]pyridin-2-yl)pyrrolidine-1-carbonyl)phenyl)but-2-enamide Formate Salt]	< 0.1 µM	< 1 µM
C#CC(=O)Nc1cccc(C(=O)N2CCC(c3cc4c(-c5cnn6ncccc56)ccnc4[nH]3)C2)c1 (stereo not shown) [Example 146, N-(3-(3-(4-(Pyrazolo[1,5-b]pyridazin-3-yl)-1H-pyrrolo[2,3-b]pyridin-2-yl)pyrrolidine-1-carbonyl)phenyl)propiolamide]	< 0.1 µM	< 1 µM
O=C(CCl)Nc1cccc(C(=O)N2CC[C@H](c3cc4c(-c5cnn6ncccc56)ccnc4[nH]3)C2)c1 [Example 160, (S)-2-Chloro-N-(3-(3-(4-(pyrazolo[1,5-b]pyridazin-3-yl)-1H-pyrrolo[2,3-b]pyridin-2-yl)pyrrolidine-1-carbonyl)phenyl)acetamide]	< 0.1 µM	< 1 µM
C=CC(=O)N1CCC[C@H]1C(=O)N1CC[C@@H](c2cc3c(-c4cnn5ncccc45)ccnc3[nH]2)C1 [Example 161, 1-((S)-2-((R)-3-(4-(Pyrazolo[1,5-b]pyridazin-3-yl)-1H-pyrrolo[2,3-b]pyridin-2-yl)pyrrolidine-1-carbonyl)pyrrolidin-1-yl)prop-2-en-1-one]	0.1 to 1 µM	< 1 µM
CN(C)C/C=C/C(=O)Nc1cccc(C(=O)NCCc2cc3c(-c4cnn5ncccc45)ccnc3[nH]2)c1 [Example 200, (E)-3-(4-(Dimethylamino)but-2-enamido)-N-(2-(4-(pyrazolo[1,5-b]pyridazin-3-yl)-1H-pyrrolo[2,3-b]pyridin-2-yl)ethyl)benzamide]	0.1 to 1 µM	10 to 100 µM
C=CC(=O)Nc1cc(C(=O)N2CCC(c3cc4c(-c5cnn6ncccc56)ccnc4[nH]3)C2)ccc1OC (stereo not shown) [Example 204, N-(2-Methoxy-5-(3-(4-(pyrazolo[1,5-b]pyridazin-3-yl)-1H-pyrrolo[2,3-b]pyridin-2-yl)pyrrolidine-1-carbonyl)phenyl)acrylamide]	< 0.1 µM	< 1 µM
C=CC(=O)N1C[C@H](F)C[C@H]1C(=O)NCCc1cc2c(-c3cnn4ncccc34)ccnc2[nH]1 [Example 207, (2S,4R)-1-Acryloyl-4-fluoro-N-(2-(4-(pyrazolo[1,5-b]pyridazin-3-yl)-1H-pyrrolo[2,3-b]pyridin-2-yl)ethyl)pyrrolidine-2-carboxamide]	< 0.1 µM	< 1 µM
